Experimental data published in PubChem BioAssay AID1259411 (Chemical Carcinogenesis Research Information System (CCRIS), 2018).
Calls of active or inactive are those of the source. How the calls were made is not given here.

Tested on: rodent carcinogenicity bioassays, tumor incidence
Assay: CCRIS carcinogenicity studies
Summary of the method: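 NCI-built, expert-reviewed records of carcinogenicity and related test outcomes (mutagenicity, tumor promotion/inhibition) compiled from published and report sources, historical span 1985-2011, not updated.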

[1] = Species: MOUSE, Route: DERMAL, Tumor Site: Type of Lesion: INTEGUMENTARY SYSTEM (SKIN)

## c1ccc2c(c1)ccc1c3ccccc3ccc21
[1]
  carcinogen call: active; positive
Species: MOUSE, Strain/Sex: ICR/FEMALE, Route: DERMAL, Dose: 0, 0.1 MG, 3/WK FOR 17 MO, Tumor Site: Type of Lesion: INTEGUMENTARY SYSTEM (SKIN): CARCINOMA
  carcinogen call: active; positive
Species: MOUSE, Strain/Sex: ICR/FEMALE, Route: INTRAPERITONEAL, Dose: 0, 6.3 UG TOTAL DOSE (0.9 UG/5 µL, 1.8 UG/10 µL, 3.6 UG/20 µL DMSO ON DAYS 1, 8 AND 15), 210 UG TOTAL DOSE (30 UG/5 µL,, Dose: 0, 6.3 UG TOTAL DOSE (0.9 UG/5 µL, 1.8 UG/10 µL, 3.6 UG/20 µL DMSO ON DAYS 1, 8 AND 15), 210 UG TOTAL DOSE (30 UG/5 µL
  carcinogen call: inactive; negative
Species: MOUSE, Strain/Sex: ICR/MALE, Route: INTRAPERITONEAL, Dose: 0, 6.3 UG TOTAL DOSE (0.9 UG/5 µL, 1.8 UG/10 µL, 3.6 UG/20 µL DMSO ON DAYS 1, 8 AND 15), 210 UG TOTAL DOSE (30 UG/5 µL,, Dose: 0, 6.3 UG TOTAL DOSE (0.9 UG/5 µL, 1.8 UG/10 µL, 3.6 UG/20 µL DMSO ON DAYS 1, 8 AND 15), 210 UG TOTAL DOSE (30 UG/5 µL
  carcinogen call: inactive; negative
Species: RAT, Strain/Sex: OSBORNE-MENDEL/FEMALE, Route: INTRAPULMONARY IMPLANT, Dose: 0, 1, 3 MG IN BEESWAX AND TRIOCTANOIN IMPLANTED IN LUNG (STUDY DURATION: 141 WK), Dose: 0, 1, 3 MG IN BEESWAX AND TRIOCTANOIN IMPLANTED IN LUNG (STUDY DURATION: 141 WK), Tumor Site: Type of Lesion: LUNG: CARCINOMA
  carcinogen call: active; positive

## C/C=C/c1ccc2c(c1)OCO2
Species: MOUSE, Strain/Sex: B6C3F1/MALE,FEMALE, Route: GAVAGE/ORAL, Dose: 215 MG/KG FROM D 6= 28 OF LIFE THEN 517 MG/KG IN DIET, Tumor Site: Type of Lesion: LIVER
  carcinogen call: active; positive
Species: RAT, Route: ORAL, Dose: 1000, 2500, 5000, 10000 MG/KG IN DIET FOR 2 YR, Dose: 1000, 2500, 5000, 10000 MG/KG IN DIET FOR 2 YR, Tumor Site: Type of Lesion: LIVER: HEPATOCELLULAR ADENOMA, CARCINOMA
  carcinogen call: active; positive

## O=C1CCO1
[1]
  carcinogen call: active; positive
Species: MOUSE, Route: INTRAPERITONEAL, Tumor Site: Type of Lesion: LIVER, LYMPHATIC SYSTEM: LYMPHOMA
  carcinogen call: active; positive
Species: MOUSE, Route: SUBCUTANEOUS, Tumor Site: Type of Lesion: INJECTION SITE
  carcinogen call: active; positive
Species: MOUSE, Strain/Sex: CF1/FEMALE, Route: DERMAL, Dose: 0, 2% IN ACETONE 2D/WK FOR 2 YR (STUDY DURATION: 2 YR), Tumor Site: Type of Lesion: SKIN: SQUAMOUS CELL CARCINOMA, SKIN: CARCINOSARCOMA
  carcinogen call: active; positive
Species: MOUSE, Strain/Sex: CF1/MALE, Route: DERMAL, Dose: 0, 2% IN ACETONE 2D/WK FOR 104 WK (STUDY DURATION: 2 YR), Tumor Site: Type of Lesion: SKIN: SQUAMOUS CELL CARCINOMA, SKIN: DERMAL FIBROSARCOMA, SKIN: CARCINOSARCOMA, Tumor Site: Type of Lesion: SKIN: SQUAMOUS CELL CARCINOMA, SKIN: DERMAL FIBROSARCOMA, SKIN: CARCINOSARCOMA
  carcinogen call: active; positive
Species: RAT, Route: SUBCUTANEOUS, Tumor Site: Type of Lesion: INJECTION SITE
  carcinogen call: active; positive
Species: RAT, Strain/Sex: SPRAGUE-DAWLEY/MALE, Route: INHALATION, Dose: 0, 5, 10, 20 PPM 6 HR/D 5 D/WK FOR 30 D EXCEPT 20 PPM GROUP WHICH WAS EXPOSED FOR 5 D (STUDY DURATION: LIFETIME), Dose: 0, 5, 10, 20 PPM 6 HR/D 5 D/WK FOR 30 D EXCEPT 20 PPM GROUP WHICH WAS EXPOSED FOR 5 D (STUDY DURATION: LIFETIME), Tumor Site: Type of Lesion: NASAL CAVITY: TUMORS
  carcinogen call: active; positive

## Nc1ccc(-c2ccc(N)c(Cl)c2)cc1Cl
Species: HAMSTER, Route: ORAL, Tumor Site: Type of Lesion: URINARY BLADDER
  carcinogen call: active; positive
Species: RAT, Route: ORAL, Tumor Site: Type of Lesion: EAR (ZYMBAL GLAND), MAMMARY GLAND, INTEGUMENTARY SYSTEM (SKIN), HEMATOPOIETIC SYSTEM, URINARY BLADDER, Tumor Site: Type of Lesion: EAR (ZYMBAL GLAND), MAMMARY GLAND, INTEGUMENTARY SYSTEM (SKIN), HEMATOPOIETIC SYSTEM, URINARY BLADDER
  carcinogen call: active; positive
Species: RAT, Route: SUBCUTANEOUS, Tumor Site: Type of Lesion: MAMMARY GLAND, INTEGUMENTARY SYSTEM (SKIN)
  carcinogen call: active; positive

## NC(=O)c1cnccn1
Species: MOUSE, Strain/Sex: B6C3F1/MALE, Route: ORAL, Dose: 0, 5000, 10000 PPM IN DIET, Dose: 0, 5000, 10000 PPM IN DIET
  carcinogen call: inactive; negative
Species: RAT, Strain/Sex: F344/FEMALE, Route: ORAL, Dose: 0, 5000, 10000 PPM IN DIET, Dose: 0, 5000, 10000 PPM IN DIET
  carcinogen call: inactive; negative
Species: RAT, Strain/Sex: F344/MALE, Route: ORAL, Dose: 0, 5000, 10000 PPM IN DIET, Dose: 0, 5000, 10000 PPM IN DIET
  carcinogen call: inactive; negative

## CC(=O)CN(CC(C)O)N=O (stereo not given)
Species: RAT, Strain/Sex: F344/FEMALE, Route: INTRAVESICULAR, Dose: 0, 2.5 MG IN 0.2 ML ETHANOL:DEIONIZED WATER (1:3) 2/WK FOR 22 WK (TOTAL DOSE 0.7 MMOL) (STUDY DURATION: LIFESPAN), Tumor Site: Type of Lesion: BLADDER: TUMOR, LIVER: TUMOR
  carcinogen call: active; positive
Species: RAT, Strain/Sex: F344/FEMALE, Route: ORAL, Dose: 0, 55, 220 MG/L DRINKING WATER 5 D/WK FOR 40, 21 WK (TOTAL DOSE 220; 460 MG) (STUDY DURATION: LIFESPAN), Dose: 0, 55, 220 MG/L DRINKING WATER 5 D/WK FOR 40, 21 WK (TOTAL DOSE 220; 460 MG) (STUDY DURATION: LIFESPAN), Tumor Site: Type of Lesion: LIVER: CARCINOMA, ANGIOSARCOMA, LUNG: TUMOR, ESOPHAGUS: CARCINOMA, PAPILLOMA, NASAL CAVITY: TUMOR, Tumor Site: Type of Lesion: LIVER: CARCINOMA, ANGIOSARCOMA, LUNG: TUMOR, ESOPHAGUS: CARCINOMA, PAPILLOMA, NASAL CAVITY: TUMOR
  carcinogen call: active; positive

## COc1ccc(OC(=O)N(CC(=O)O)Cc2ccc(OCCc3nc(-c4ccccc4)oc3C)cc2)cc1
Species: Mouse, Strain/Sex: Crl:CD-1 (ICR)BR/Female (60/group), Route: Oral, Dose: 0, 1, 5, 20 mg/kg (initial group) or 0, 40 mg/kg (supplemental group) by gavage daily for up to 105 wks, vehicle cont, Dose: 0, 1, 5, 20 mg/kg (initial group) or 0, 40 mg/kg (supplemental group) by gavage daily for up to 105 wks, vehicle cont
  carcinogen call: inactive; negative (slight increases in hemangiosarcoma (multiple organs) and mammary glan
Species: Mouse, Strain/Sex: Crl:CD-1 (ICR)BR/Male (60/group), Route: Oral, Dose: 0, 1, 5, 20 mg/kg (initial group) or 0, 40 mg/kg (supplemental group) by gavage daily for up to 105 wks, vehicle cont, Dose: 0, 1, 5, 20 mg/kg (initial group) or 0, 40 mg/kg (supplemental group) by gavage daily for up to 105 wks, vehicle cont, Tumor Site: Type of Lesion: GALLBLADDER: adenoma (1/60 at 20 mg/kg, 2/60 at 40 mg/kg), not significant
  carcinogen call: inactive; negative (although statistical significance was not obtained, the authors consid
Species: Rat, Strain/Sex: Hsd:Sprague Dawley SD/Female (65/group), Route: Oral, Dose: 0, 1, 5, 30, 50 mg/kg by gavage daily for up to 105 wks, vehicle controls administered alkaline PEG-400, Dose: 0, 1, 5, 30, 50 mg/kg by gavage daily for up to 105 wks, vehicle controls administered alkaline PEG-400, Tumor Site: Type of Lesion: SUBCUTANEOUS TISSUE: lipoma (50 mg/kg only). UTERUS: Squamous cell carcinoma, adenoma and carcinoma, and squamous cell p, Tumor Site: Type of Lesion: SUBCUTANEOUS TISSUE: lipoma (50 mg/kg only). UTERUS: Squamous cell carcinoma, adenoma and carcinoma, and squamous cell p
  carcinogen call: active; positive (weak response)
Species: Rat, Strain/Sex: Hsd:Sprague Dawley SD/Male (65/group), Route: Oral, Dose: 0, 1, 5, 30, 50 mg/kg by gavage daily for up to 105 wks, vehicle controls administered alkaline PEG-400, Dose: 0, 1, 5, 30, 50 mg/kg by gavage daily for up to 105 wks, vehicle controls administered alkaline PEG-400, Tumor Site: Type of Lesion: URINARY BLADDER: transitional cell carcinoma and papilloma at 5, 30, and 50 mg/kg associated with increased urinary soli
  carcinogen call: active; positive, muraglitazar reported to be a peroxisome proliferator-activated recept

## C=CC(O)c1ccc2c(c1)OCO2 (stereo not given)
Species: MOUSE, Strain/Sex: CD-1/FEMALE, Route: ORAL, Dose: 0.083% IN DIET FROM D 1 TO 10, 0.17% FROM D 11 TO 20, 0.55% THEREAFTER TO 12 MO, Tumor Site: Type of Lesion: LIVER: HEPATOCELLULAR CARCINOMA
  carcinogen call: active; positive
Species: MOUSE, Strain/Sex: CD-1/MALE, Route: SUBCUTANEOUS, Dose: TOTAL DOSE: 3.18 UMOL IN TRIOCTANOIN OVER 22 D, Tumor Site: Type of Lesion: LIVER: HEPATOCELLULAR CARCINOMA
  carcinogen call: active; positive
Species: RAT, Strain/Sex: STRAIN-CD/MALE, Route: ORAL, Dose: 0.25% IN DIET FOR 17 MO, 0.55% IN DIET FOR 10 MO, Tumor Site: Type of Lesion: LIVER: HEPATOCELLULAR CARCINOMA
  carcinogen call: active; positive

## CC(=O)O[C@]1(C(C)=O)CC[C@H]2[C@@H]3C=C(C)C4=CC(=O)CC[C@]4(C)[C@H]3CC[C@@]21C
Species: DOG, Route: ORAL, Tumor Site: Type of Lesion: MAMMARY GLAND
  carcinogen call: active; positive
